Data published in US20100028402A1, “NANOPARTICLE-BASED ANTICOAGULANT” (priority 2006, published 2010).
Values after ≈ are worked out from the molar mass of the structure shown.

Legend:
[1] = test system: murine bone marrow myeloid precursors; test: CFU-GM assay (myelosuppression); details: FIG. 3
Experimental: CFU-GM Assay. The granulocyte-macrophage colony-forming units (CFU-GM) assay employed murine bone marrow (BM). […] The BM cells were isolated from 8-12 week old mice and cultured in methylcellulose-based medium supplemented with cytokines (mSCF, mIL-3 and hIL-6) either untreated (baseline) or treated with nanoparticles (test). These cytokines promoted formation of granulocyte and macrophage (CFU-GM) colonies. After twelve days of incubation at 37° C. in the presence of 5% CO2 and 95% humidity number of colonies was quantified in baseline and test samples. A percent of CFU inhibition was then calculated for each test sample. The basic protocol for BM isolation and culture was adopted from technical manual # 28405 developed by StemCell Technologies Inc. The assay required 450 μL of a test-nanoparticles, MethoCult medium (StemCell Technologies Inc cat. # 03534), Fetal Bovine Serum prescreened for hematopoietic stem cells (StemCell Technologies Inc. cat. # 06200), Iscove's MDM with 2% FBS (StemCell Technologies Inc cat. # 07700), sterile distilled water, blunt-end 16 gauge needles (StemCell Technologies Inc cat. # 03534 2.6), cisplatin (positive control; Sigma cat #P4394), Sterile Ca^2+/Mg^2+-free DPBS (negative control; Sigma D8537). […]
The CFU-GM assay required 450 μL of nanoparticles, e.g., three 150 μL samples, each of which is analyzed in duplicate. […]

[2] = test system: platelets (human platelet-rich plasma); test: Platelet aggregation assay, with and without collagen; type: cell-based
Experimental: Platelet Aggregation Assay. […] The concentration of the nanoparticle was determined by considering the following parameters: i) the solubility of the nanoparticle in a biocompatible buffer; ii) maintaining the pH within a physiological range (pH 7±0.5); iii) availability of nanoparticle; and iv) stability of the nanoparticle. […] The assay required 150 μL of test material.
Platelet-rich plasma (PRP) was obtained from fresh pooled human whole blood by spinning freshly drawn blood for 8 minutes at 200 g. PRP was then pooled from at least 3 different donors. It is to be noted that during phlebotomy, the first 2 mLs of blood was discarded. Further, PRP was prepared as soon as possible from the time of obtaining the blood sample and no longer than 1 hour after blood collection. PRP was kept at room temperature and was used within 4 hours of its isolation. Exposure of either the blood or PRP to cold temperatures (<20° C.) was avoided because such temperatures induce platelet aggregations.
Three test tubes for the test sample, two tubes for the positive control and two tubes for the negative control were prepared. Twenty-five microliters of the test sample, positive control or negative control were added to the respective tubes. These samples provided data on the ability of the test nanoparticle to induced platelet aggregation. A second set of tubes were prepared for test-particles plus collagen. These set of tubes provided data on the ability of test-particles to interfere with platelet aggregation caused by collagen. For this set of studies, 25 μL of the positive control and 25 μL of the test nanoparticle was added to each “test-particles plus collagen” tube. Further, 50 μL of the negative control was added to each negative control tube and 25 μL of the positive control and 25 μL of RPMI was added to each positive control tube. In addition, one control tube with 100 μL of phosphate buffer saline (PBS) or RPMI and 25 μL of the nanoparticles was prepared to determine any potential particle interference with instrument counting procedure.
PRP was added to the appropriate tubes, samples were briefly vortexed and then incubated with control or test sample for 15 minutes at a nominal temperature of 37° C. After the incubation period, 10 mL of Isoton II diluent was added into blood cell counter vials. Two vials were prepared for each sample replicate. Twenty microliters of PRP treated with positive control, negative control or test-nanoparticle was then added to the each vial. Vials were covered and gently inverted to mix the diluted samples. PRP was analyzed by a Z2 Particle Count and Size Analyzer (Beckman Coulter) to determine the number of active platelets. Percent Coefficient of Variation (% CV) was equal to the standard deviation divided by the mean multiplied by 100. Platelet count=(5×RC)/100=# platelets×10^9/L. Further, percent platelet aggregation (% aggregation)=Control Platelet Count−Sample Platelet Count/Control Platelet Count×100). The percent coefficient of variation for each control and test sample was within 25%. […] Percent platelet aggregation above 20% was considered to be positive (for example, test-particle induces platelet aggregation).

[3] = MTT and LDH cytotoxicity assays, kidney cells; type: cell-based, porcine; details: pig, LLC-PK1 porcine proximal tubule epithelial cells, treated 6, 24 or 48 hours, 1.0 to 0.004 mg/mL, read-out: LC50 (the source's name)
Experimental: (§1) The cytotoxicity of AF1, AF3, C3, DF1 and NCL22 on porcine proximal tubule epithelial cells (LLC-PK1) was determined by a method that includes a 3-(4,5-Dimethyl-2-thiazolyl)-2,5-diphenyl-2H-tetrazolium bromide (MTT) reduction and lactate dehydrogenase (LDH) release assays. MTT that is a yellow water-soluble tetrazolium dye that is reduced by live cells to a water-insoluble purple formazan. The amount of formazan can be determined by solubilizing the formazan in DMSO and measuring it spectrophotometrically. Comparisons between the spectra of treated and untreated cells can give a relative estimation of cytotoxicity. (See, Alley et al. Cancer Res. 48: 589-60, 1988 which is hereby incorporated by reference in its entirety). The LDH assay is based upon LDH (a cytoplasmic enzyme that is released into the […] upon cell lysis) oxidizing lactate to pyruvate, pyruvate reacting with a tetrazolium salt INT to form formazan, and the water-soluble formazan dye being detected spectrophotometrically. Thus, the LDH assay is a measure of membrane integrity. […]
(§2) Briefly, for assays employing porcine kidney epithelial cells, such cells were plated at […] in a 96 well plate. […] Cytotoxicity was then determined by MTT and LDH assays.

[4] = test system: porcine proximal tubule epithelial cells (LLC-PK1); test: MTT and LDH cytotoxicity assays, kidney cells; type: cell-based; details: 1.0 to 0.004 mg/mL
Experimental: as §1, §2

[5] = Nanoparticle dimension; type: physicochemical
[6] = test system: red blood cells (pooled normal human whole blood); test: Hemolysis assay; type: cell-based
Text: Hemolysis Assay. This assay employs a protocol for quantitative colorimetric determination of hemoglobin in whole blood (total blood hemoglobin—TBH) and hemoglobin released into plasma (plasma free hemoglobin—PFH) when blood was exposed to nanoparticles. In brief, hemoglobin and its derivatives, except sulfhemoglobin, were oxidized to methemoglobin by ferricyanide in the presence of alkali. Cyanmethemoglobin (CMH) was formed from the methemoglobin by its reaction with cyanide (Drabkin's solution) and then detected by spectrophotometer set at 540 nm. The hemoglobin standard was used to build a standard curve covering the concentration range from 0.025 to 0.80 mg/mL and to prepare quality control samples at low (0.0625 mg/mL), mid (0.125 mg/mL) and high (0.625 mg/mL) concentrations to monitor assay performance. Required sample volume was 300 μL, e.g., 100 μL per test-replicate. The results expressed as percent of hemolysis were used to evaluate the acute in vitro hemolytic properties of nanoparticles.
The following reagents were used in the assay: cyanmethemoglobin (CMH) reagent, (StanBio, cat. # 0321-380); hemoglobin standard (StanBio, cat. # 0325-006); Ca/Mg free DPBS (Sigma, catalogue no: D8537); pooled normal human whole blood anti-coagulated with Li-heparin; poly-L-Lysine hydrobromide (MW 150 000-300 000, Sigma, cat #P1399); polyethylene glycol (av. MW 8 000, Sigma cat # P1458); and distilled water. It is contemplated that equivalent reagents from other vendors can be used.
The positive control was prepared by dissolving poly-L-Lysine powder to a final concentration of 1% (10 mg/mL) in sterile distilled water. […] Alternatively, 1% TritonX-100 in water was used as a positive control. […]
Whole blood was collected in tubes containing Li-heparin as anti coagulant from at least three donors. […] The plate was then read by use of a plate reader at an absorbance of 540 nm to determine hemoglobin concentration. […] If calculated PFH concentration was below 1 mg/mL pooled whole blood was diluted with Ca^2+/Mg^2+ free DPBS to adjust total hemoglobin concentration to 10±2 mg/mL. […]

Compound: N.N.[Cl][Pt][Cl] [cisplatin]
- myelosuppressive effect ([1]; positive control, 50 μM): myelosuppression caused by cisplatin treatment

Compound: collagen
- platelet aggregation induced ([2]; collagen 20 μg/mL, FIG. 4): greater than 60%
- platelet aggregation induced ([2]; collagen 25 μg/mL, FIG. 5): greater than 80%

Compound: O=C(O)C1(C(=O)O)C2c3ccc4c5c3-c3c6c7c8c9c3C53C(C(=O)O)(C(=O)O)C35C(=C4)Cc3cc4c(c-9c35)C83C(CC4)(CC7CC621)C3(C(=O)O)C(=O)O (stereo not shown) [C3, C60(>C(COOH)2)3]
- protection of bone marrow cells from myelosuppression caused by cisplatin ([1]; with cisplatin (50 μM)): none of the tested substituted fullerenes were able to protect the bone marrow cells
- CC50 [3]: 207 µg/mL (≈ 293 µM)
- toxicity to kidney cells [4]: minimally toxic
- dimension [5]: 1.57 nm
- percent of hemolysis ([6]; human, 3 h): less than 2%
- collagen-induced platelet aggregation in presence of compound ([2]; compound 200 μg/mL, collagen 20 μg/mL (collagen alone greater than 60%), FIG. 4): approximately 15%

Compound: Triton X-100
- hemolysis by positive control [6]: 90±5%
- hemolysis of the red blood cells [6]: greater than 80%

Compound: CC(=O)Oc1ccccc1C(=O)O [aspirin]
- effect on collagen-induced platelet aggregation ([2]; 167 μg/mL, collagen 25 μg/mL, FIG. 5): significant reduction in collagen-induced platelet aggregation
- dose dependence of inhibition of collagen-induced platelet aggregation ([2]; 167, 33.4 and 16.7 μg/mL, collagen 25 μg/mL, FIG. 5): dose dependent
